Measurements reported in publication PMC8260761, “A bacteriocin-based treatment option for Staphylococcus haemolyticus biofilms” (Scientific Reports, 2021).

What was measured:
Assay in all cases: Spot-on-lawn inhibition assay
Assay type in all cases: cell-based
L. plantarum = system: L. plantarum; set-up: key: –: “−” = No inhibition; “+” = Unclear zone; “++” = zone < 1 cm; “+++” = zone ≥ 1 cm; details: L. plantarum LMG 2352; 5 µl at 1 mg/ml; n=3
Description: (§1) A semi-quantitative spot-on-lawn inhibitory assay was performed on 51 bacterial indicator strains (Table S1) to determine the bacteriocins inhibition spectra. Overnight cultures were diluted 1:100 in BHI soft agar and distributed on BHI agar plates. Once solidified, bacteriocins with various concentrations were applied on designated spots. The plates were incubated at appropriate temperature O/N and inhibition zones were measured the following day. To determine minimal inhibitory concentration (MIC50) of H1 against clinical S. haemolyticus isolates (Table S2), as well as strains heterologously expressing RseP (Table S4), the microtiterplate antimicrobial assay was performed as previously described[41],[79]. MIC50 was defined as the minimal bacteriocin concentration needs to inhibit the growth of a bacterial strain by at least 50%.

Lactococcus garvieae = system: Lactococcus garvieae; set-up: key: –: “−” = No inhibition; “+” = Unclear zone; “++” = zone < 1 cm; “+++” = zone ≥ 1 cm; details: Lactococcus garvieae DCC43; 5 µl at 1 mg/ml; n=3
Description: as §1

L. ivanovii = system: L. ivanovii; set-up: key: –: “−” = No inhibition; “+” = Unclear zone; “++” = zone < 1 cm; “+++” = zone ≥ 1 cm; details: L. ivanovii Li4; 5 µl at 1 mg/ml; n=3
Description: as §1

Enterococcus avium = system: Enterococcus avium; set-up: key: –: “−” = No inhibition; “+” = Unclear zone; “++” = zone < 1 cm; “+++” = zone ≥ 1 cm; details: Enterococcus avium LMG 3465; 5 µl at 1 mg/ml; n=3
Description: as §1

E. faecalis = system: E. faecalis; set-up: key: –: “−” = No inhibition; “+” = Unclear zone; “++” = zone < 1 cm; “+++” = zone ≥ 1 cm; details: 5 µl at 1 mg/ml, n=3
Description: as §1

L. sakei = system: L. sakei; set-up: key: “-“ = No inhibition; “+” = Unclear zone; “++” = zone < 1 cm; “+++”= zone > 1 cm; details: 5 µl at 1 mg/ml, n=3
Description: as §1

S. simulans = system: S. simulans; set-up: key: “-“ = No inhibition; “+” = Unclear zone; “++” = zone < 1 cm; “+++”= zone > 1 cm; details: S. simulans LMG 3233; 5 µl at 1 mg/ml; n=3
Description: as §1

L. lactis = system: L. lactis; set-up: key: “-“ = No inhibition; “+” = Unclear zone; “++” = zone < 1 cm; “+++”= zone > 1 cm; details: 5 µl at 1 mg/ml, n=3
Description: as §1

S. thermophilus = system: S. thermophilus; set-up: key: “-“ = No inhibition; “+” = Unclear zone; “++” = zone < 1 cm; “+++”= zone > 1 cm; details: S. thermophilus Sfi13; 5 µl at 1 mg/ml; n=3
Description: as §1

L. salivarius = system: L. salivarius; set-up: key: “-“ = No inhibition; “+” = Unclear zone; “++” = zone < 1 cm; “+++”= zone > 1 cm; details: L. salivarius UCC118; 5 µl at 1 mg/ml; n=3
Description: as §1

S. aureus = system: S. aureus; set-up: key: “-“ = No inhibition; “+” = Unclear zone; “++” = zone < 1 cm; “+++”= zone > 1 cm; details: 5 µl at 1 mg/ml, n=3
Description: as §1

[1] = system: Streptococcus dysgalactiae; set-up: key: “-“ = No inhibition; “+” = Unclear zone; “++” = zone < 1 cm; “+++”= zone > 1 cm; details: Streptococcus dysgalactiae 7649-3; 5 µl at 1 mg/ml; n=3
Description: as §1

S. uberis = system: S. uberis; set-up: key: “-“ = No inhibition; “+” = Unclear zone; “++” = zone < 1 cm; “+++”= zone > 1 cm; details: 5 µl at 1 mg/ml, n=3
Description: as §1

L. monocytogenes = system: L. monocytogenes; set-up: key: “-“ = No inhibition; “+” = Unclear zone; “++” = zone < 1 cm; “+++”= zone > 1 cm; details: 5 µl at 1 mg/ml, n=3
Description: as §1

L. gelidum = system: L. gelidum; set-up: key: “-“ = No inhibition; “+” = Unclear zone; “++” = zone < 1 cm; “+++”= zone > 1 cm; details: L. gelidum LMG 2386; 5 µl at 1 mg/ml; n=3
Description: as §1

Esherichia coli = system: Esherichia coli; set-up: key: “-“ = No inhibition; “+” = Unclear zone; “++” = zone < 1 cm; “+++”= zone > 1 cm; details: 5 µl at 1 mg/ml, n=3
Description: as §1

L. innocua = system: L. innocua; set-up: key: “-“ = No inhibition; “+” = Unclear zone; “++” = zone < 1 cm; “+++”= zone > 1 cm; details: 5 µl at 1 mg/ml, n=3
Description: as §1

Carnobacterium divergens = system: Carnobacterium divergens; set-up: key: “-“ = No inhibition; “+” = Unclear zone; “++” = zone < 1 cm; “+++”= zone > 1 cm; details: Carnobacterium divergens NCDO 2306; 5 µl at 1 mg/ml; n=3
Description: as §1

MLAKIKAMIKKFPNPYTLAAKLTTYEINWYKQQYGRYPWERPVA [EJ97, enterocin EJ97]
Average inhibition score (L. plantarum): ++ (“++” = zone < 1 cm) | Average inhibition score (Lactococcus garvieae): + | Average inhibition score (L. ivanovii): + | Average inhibition score (Enterococcus avium): +++ (“+++”= zone > 1 cm) | Average inhibition score (E. faecalis; E. faecalis LMG 2333): +++ (“+++”= zone > 1 cm) | Average inhibition score (E. faecalis; E. faecalis LMG 3330): +++ (“+++”= zone > 1 cm) | Average inhibition score (E. faecalis; E. faecalis LMG 3331): +++ (“+++”= zone > 1 cm) | Average inhibition score (E. faecalis; E. faecalis LMG 3332): +++ (“+++”= zone > 1 cm) | Average inhibition score (E. faecalis; E. faecalis V583): + | Average inhibition score (L. sakei; L. sakei 148): - | Average inhibition score (L. sakei; L. sakei LMG 2380): - | Average inhibition score (S. simulans): - | Average inhibition score (L. lactis; L. lactis IL1403): +++ (“+++”= zone > 1 cm) | Average inhibition score (L. lactis; L. lactis LMG 2081): - | Average inhibition score (S. thermophilus): - | Average inhibition score (L. salivarius): - | Average inhibition score (S. aureus; S. aureus ATCC14458): - | Average inhibition score (S. aureus; S. aureus LMG 3325): - | Average inhibition score (S. aureus; S. aureus LMG 3328): - | Average inhibition score (S. aureus; S. aureus LMG 3329): - | Average inhibition score [1]: - | Average inhibition score (S. uberis; S. uberis 7904-3): - | Average inhibition score (S. uberis; S. uberis 8008-1): - | Average inhibition score (L. monocytogenes; L. monocytogenes 223): - | Average inhibition score (L. monocytogenes; L. monocytogenes 279): - | Average inhibition score (L. monocytogenes; L. monocytogenes 400): - | Average inhibition score (L. monocytogenes; L. monocytogenes 403): - | Average inhibition score (L. gelidum): - | Average inhibition score (Esherichia coli; E. coli TG1): - | Average inhibition score (Esherichia coli; Esherichia coli DH5α): - | Average inhibition score (L. innocua; L. innocua LMG 2710): +++ (“+++”= zone > 1 cm) | Average inhibition score (L. innocua; L. innocua LMG 2785): - | Average inhibition score (Carnobacterium divergens): -

MKFKFNPTGTIVKKLTQYEIAWFKNKHGYYPWEIPRC [K1, enterocin K1]
Average inhibition score (L. plantarum): + | Average inhibition score (Lactococcus garvieae): +++ (“+++”= zone > 1 cm) | Average inhibition score (L. ivanovii): + | Average inhibition score (Enterococcus avium): + | Average inhibition score (E. faecalis; E. faecalis LMG 2333): + | Average inhibition score (E. faecalis; E. faecalis LMG 3330): + | Average inhibition score (E. faecalis; E. faecalis LMG 3331): + | Average inhibition score (E. faecalis; E. faecalis LMG 3332): + | Average inhibition score (E. faecalis; E. faecalis V583): + | Average inhibition score (L. sakei; L. sakei 148): +++ (“+++”= zone > 1 cm) | Average inhibition score (L. sakei; L. sakei LMG 2380): ++ (“++” = zone < 1 cm) | Average inhibition score (S. simulans): - | Average inhibition score (L. lactis; L. lactis IL1403): +++ (“+++”= zone > 1 cm) | Average inhibition score (L. lactis; L. lactis LMG 2081): - | Average inhibition score (S. thermophilus): - | Average inhibition score (L. salivarius): - | Average inhibition score (S. aureus; S. aureus ATCC14458): - | Average inhibition score (S. aureus; S. aureus LMG 3263): - | Average inhibition score (S. aureus; S. aureus LMG 3325): - | Average inhibition score (S. aureus; S. aureus LMG 3326): - | Average inhibition score (S. aureus; S. aureus LMG 3328): - | Average inhibition score (S. aureus; S. aureus LMG 3329): - | Average inhibition score [1]: - | Average inhibition score (S. uberis; S. uberis 8008-1): - | Average inhibition score (L. monocytogenes; L. monocytogenes 223): - | Average inhibition score (L. monocytogenes; L. monocytogenes 279): - | Average inhibition score (L. monocytogenes; L. monocytogenes 400): - | Average inhibition score (L. monocytogenes; L. monocytogenes 403): - | Average inhibition score (L. gelidum): - | Average inhibition score (Esherichia coli; E. coli TG1): - | Average inhibition score (Esherichia coli; Esherichia coli DH5α): - | Average inhibition score (L. innocua; L. innocua LMG 2710): ++ (“++” = zone < 1 cm) | Average inhibition score (L. innocua; L. innocua LMG 2785): +++ (“+++”= zone > 1 cm) | Average inhibition score (Carnobacterium divergens): -
